Laboratory results published in patent US9585891B2 (MERCK PATENT GMBH, priority 2012, dated 2017).

What was measured:
[1] = molecular target: T1, Vanin-1 in SUIT-S2 cell line (Homo sapiens, UniProt O95497); test: Vanin-1 cell-based mechanistic assay (fluorescence intensity, Pantothenate-AMC substrate); conditions: 40000 cells per well, 2 hours incubation at 37° C., Pantothenate-AMC 30 μM, 30 min
T1 construct: endogenous in cells; host or cells: SUIT-S2 cell line (ATCC # CRL1596)
T1 sequence (O95497 22-491): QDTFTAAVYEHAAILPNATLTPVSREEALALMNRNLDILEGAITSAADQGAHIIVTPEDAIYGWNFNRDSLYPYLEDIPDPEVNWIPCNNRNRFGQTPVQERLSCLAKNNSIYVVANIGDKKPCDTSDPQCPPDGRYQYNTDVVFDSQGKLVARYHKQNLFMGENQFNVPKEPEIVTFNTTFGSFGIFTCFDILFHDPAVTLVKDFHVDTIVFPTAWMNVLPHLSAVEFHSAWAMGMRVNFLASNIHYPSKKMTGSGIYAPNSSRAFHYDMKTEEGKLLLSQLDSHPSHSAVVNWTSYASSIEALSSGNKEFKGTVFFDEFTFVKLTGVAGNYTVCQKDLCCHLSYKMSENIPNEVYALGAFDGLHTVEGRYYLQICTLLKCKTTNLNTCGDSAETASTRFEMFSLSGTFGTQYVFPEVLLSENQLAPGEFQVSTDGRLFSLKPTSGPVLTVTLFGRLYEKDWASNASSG
Experimental: Vanin-1 Cell-Based Mechanistic Assay:
The cellular activity of the examples is measured in 96-well format based on fluorescence intensity assay using SUIT-S2 cell line (ATCC # CRL1596).
Cells are cultured at 37° C. with 5% CO2 to 80-90% confluence and then washed once with phosphate-buffered saline (PBS). Adherent cells are detached with PBS-EDTA and once in suspension 40000 cells are dispensed in 90 μl of PBS in 96-well black plates with clear bottoms. Threefold serial dilutions of test compounds are made in DMSO and then solubilized in PBS, dilution range 1:30. Cells and serial diluted test compounds (final concentrations 10 μM to 4.6 nM) or controls (PBS/0.3% DMSO) are incubated for 2 hours at 37° C. with 5% CO2. The reaction is initiated by the addition of the fluorogenic substrate, Pantothenate-AMC, at a concentration of 30 μM. After 30 minutes of incubation at 30° C. with gentle agitation, fluorescence intensity is measured at λex=350 nm and λem=450 nm with a fluorescence reader (BMG PHERAstar reader or equivalent).

[2] = molecular target: T2, Human recombinant Vanin-1 (VNN1) (Homo sapiens, UniProt O95497); test: Vanin-1 enzymatic assay (fluorescence intensity, Pantothenate-AMC substrate); type: biochemical; conditions: purified recombinant human Vanin-1 0.5 nM; 30 min preincubation at 30° C.; Pantothenate-AMC 30 μM, 60 min
T2 construct: purchased Sino Biological Inc. 11662-H08H
T2 sequence (O95497 22-491): T1 sequence (O95497 22-491)
Experimental: Human recombinant Vanin-1 (VNN1) was purchased from Sino Biological Inc. (Catalog Number: 11662-H08H).
Measurement of VNN1 inhibition is performed in 384-well format based on fluorescence intensity assay. Purified recombinant human Vanin-1 (0.5 nM) and threefold serial diluted compounds in 3% DMSO (range of concentrations from 30 μM to 1.524 nM) or controls (3.0% DMSO) are incubated for 30 minutes at 30° C. with gentle agitation in assay buffer containing 100 mM potassium Phosphate Buffer (KPi), pH 7.5, 0.001% Bovine Serum Albumin (BSA), 0.5 mM dithiothreitol (DTT) and 0.0025% Brij-35. The reaction is initiated by the addition of the fluorogenic substrate, Pantothenate-AMC, at a concentration of 30 μM. After 60 minutes of incubation at 30° C. with gentle agitation, fluorescence intensity is measured at λex=350 nm and λem=450 nm with a fluorescence reader (BMG PHERAstar reader or equivalent).

CC(C)(CO)[C@@H](O)C(=O)NCCC(=O)C(=O)NCc1ccc(S(=O)(=O)N2CCCCC2)cc1 [Example 33, (R)-2,4-Dihydroxy-3,3-dimethyl-N-{3-oxo-3-[4-(piperidine-1-sulfonyl)-benzylcarbamoyl]-propyl}-butyramide]
IC50 [1]: < 10 nM
IC50 [2]: < 10 nM

CC(C)(CO)[C@@H](O)C(=O)NCCN(CCc1ccccc1)C(=O)CCl [Example 59, (R)—N-{2-[(2-Chloro-acetyl)-phenethyl-amino]-ethyl}-2,4-dihydroxy-3,3-dimethyl-butyramide]
IC50 [1]: 1200 nM
IC50 [2]: 4040 nM

CC(C)(CO)[C@@H](O)C(=O)NCCC(=O)C(=O)NCc1ccccc1 [Example 9, (R)—N-(3-Benzylcarbamoyl-3-oxo-propyl)-2,4-dihydroxy-3,3-dimethyl-butyramide]
IC50 [1]: 30 nM
IC50 [2]: 40 nM

CC(=O)/C=C/CCNC(=O)[C@H](O)C(C)(C)CO [Example 5, (R)-2,4-Dihydroxy-3,3-dimethyl-N-((E)-5-oxo-hex-3-enyl)-butyramide]
IC50 [1]: 3200 nM
IC50 [2]: 3310 nM

CC(C)(CO)[C@@H](O)C(=O)NCCNC(=O)CCl [Example 57, (R)—N-[2-(2-Chloro-acetylamino)-ethyl]-2,4-dihydroxy-3,3-dimethyl-butyramide]
IC50 [1]: 1110 nM
IC50 [2]: 2540 nM

CC(C)(CO)[C@@H](O)C(=O)NCC/C=C/C(=O)CCc1ccccc1 [Example 6]
IC50 [1]: 670 nM
IC50 [2]: 5790 nM

CC(C)(CO)[C@@H](O)C(=O)NCCC(=O)C(=O)NCc1ccc(C(=O)NCCc2ccc(Oc3ccccc3)cc2)cc1 [Example 32, 4-{[4-((R)-2,4-Dihydroxy-3,3-dimethyl-butrylamino)-2-oxo-butyrylamino]-methyl)-N-[2-(4-phenoxy-phenyl)-ethyl]-benzamide]
IC50 [1]: < 10 nM
IC50 [2]: < 10 nM

CC(C)(CO)[C@@H](O)C(=O)NCCC(=O)C(=O)NCc1cccc(OCCNS(C)(=O)=O)c1 [Example 26, (R)-2,4-Dihydroxy-N-{3-[3-(2-methanesulfonylamino-ethoxy)-benzylcarbamoyl]-3-oxo-propyl}-3,3-dimethyl-butyramide]
IC50 [1]: 260 nM
IC50 [2]: 380 nM

CC(C)(CO)[C@@H](O)C(=O)NCCC(=O)C(=O)NCc1ccccc1F [Example 10, (R)—N-[3-(2-Fluoro-benzylcarbamoyl)-3-oxo-propyl]-2,4-dihydroxy-3,3-dimethyl-butyramide]
IC50 [1]: 25 nM
IC50 [2]: 30 nM

CC(C)(CO)[C@@H](O)C(=O)NCCC(=O)C(=O)NC1CC1 [Example 8, (R)—N-(3-Cyclopropylcarbamoyl-3-oxo-propyl)-2,4-dihydroxy-3,3-dimethyl-butyramide]
IC50 [1]: 3540 nM
IC50 [2]: 1680 nM

CC(C)(CO)[C@@H](O)C(=O)NCCC(=O)C(=O)NCc1ccc(S(C)(=O)=O)cc1 [Example 24, (R)-2,4-Dihydroxy-N-[3-(4-methanesulfonyl-benzylcarbamoyl)-3-oxo-propyl]-3,3-dimethyl-butyramide]
IC50 [1]: < 10 nM
IC50 [2]: 10 nM

CC(C)(CO)[C@@H](O)C(=O)NCCC(=O)C(N)=O [Example 7, (R)—N-(3-Carbamoyl-3-oxo-propyl)-2,4-dihydroxy-3,3-dimethyl-butyramide]
IC50 [1]: 1490 nM
IC50 [2]: 830 nM

COc1cccc(CNC(=O)C(=O)CCNC(=O)[C@H](O)C(C)(C)CO)c1 [Example 22, (R)-2,4-Dihydroxy-N-[3-(3-methoxy-benzylcarbamoyl)-3-oxo-propyl]-3,3-dimethyl-butyramide]
IC50 [1]: 30 nM
IC50 [2]: 60 nM

CC(C)(CO)[C@@H](O)C(=O)NCCC(=O)C(=O)NCc1ccc(F)cc1 [Example 17, (R)—N-[3-(4-Fluoro-benzylcarbamoyl)-3-oxo-propyl]-2,4-dihydroxy-3,3-dimethyl-butyramide]
IC50 [1]: 20 nM
IC50 [2]: 30 nM

CC(C)(CO)[C@@H](O)C(=O)NCCC(=O)C(=O)NCc1ccc(OCCNS(C)(=O)=O)cc1 [Example 39, (R)-2,4-Dihydroxy-N-(3-[4-(2-methanesulfonylamino-ethoxy)-benzylcarbamoyl]-3-oxo-propyl)-3,3-dimethyl-butyramide]
IC50 [1]: < 10 nM
IC50 [2]: 20 nM

C=CC(=O)CCNC(=O)[C@H](O)C(C)(C)CO [Example 3, (R)-2,4-Dihydroxy-3,3-dimethyl-N-(3-oxo-pent-4-enyl)-butyramide]
IC50 [1]: 1270 nM
IC50 [2]: 9250 nM

CC(C)(CO)[C@@H](O)C(=O)NCCC(=O)C(=O)NCc1cccc(OC(F)(F)F)c1 [Example 15, (R)-2,4-Dihydroxy-3,3-dimethyl-N-[3-oxo-3-(3-trifluoromethoxy-benzylcarbamoyl)-propyl]-butyramide]
IC50 [1]: 140 nM
IC50 [2]: 50 nM

CC(C)(CO)[C@@H](O)C(=O)NCCC(=O)C(=O)NCCc1cccs1 [Example 14, (R)-2,4-Dihydroxy-3,3-dimethyl-N-[3-oxo-3-(2-thiophen-2-yl-ethylcarbamoyl)-propyl]-butyramide]
IC50 [1]: 90 nM
IC50 [2]: 50 nM

CC(C)(CO)[C@@H](O)C(=O)NCCC(=O)C(=O)NCc1ccccc1C(F)(F)F [Example 23, (R)-2,4-Dihydroxy-3,3-dimethyl-N-[3-oxo-3-(2-trifluoromethyl-benzylcarbamoyl)-propyl]-butyramide]
IC50 [1]: 50 nM
IC50 [2]: 70 nM

CC(C)(CO)[C@@H](O)C(=O)NCCN(CCOc1ccc(C#N)cc1)C(=O)CCl [Example 61, (R)—N-(2-{(2-Chloro-acetyl)-[2-(4-cyano-phenoxy)-ethyl]-amino}-ethyl)-2,4-dihydroxy-3,3-dimethyl-butyramide]
IC50 [1]: 220 nM
IC50 [2]: 3280 nM

CC(C)(CO)[C@@H](O)C(=O)NCCC(=O)C(=O)NCC1CCCCC1 [Example 11, (R)—N-[3-(Cyclohexylmethyl-carbamoyl)-3-oxo-propyl]-2,4-dihydroxy-3,3-dimethyl-butyramide]
IC50 [1]: 73 nM
IC50 [2]: 30 nM

CC(C)(CO)[C@@H](O)C(=O)NCCN(CC1CCN(c2ccc(C#N)cc2)CC1)C(=O)CCl [Example 62, (R)—N-(2-{(2-Chloro-acetyl)-[1-(4-cyano-phenyl)-piperidin-4-ylmethyl]-amino}-ethyl)-2,4-dihydroxy-3,3-dimethyl-butyramide]
IC50 [1]: 210 nM
IC50 [2]: 1360 nM

CC(C)(CO)[C@@H](O)C(=O)NCCC(=O)C(=O)NCCCc1ccc(S(=O)(=O)N2CCCCC2)cc1 [Example 35, (R)-2,4-Dihydroxy-3,3-dimethyl-N-(3-oxo-3-{3-[4-(piperidine-1-sulfonyl)-phenyl]-propylcarbamoyl}-propyl)-butyramide]
IC50 [2]: 70 nM

CCC(=O)CCNC(=O)[C@H](O)C(C)(C)CO [Example 2, (R)-2,4-Dihydroxy-3,3-dimethyl-N-(3-oxo-pentyl)-butyramide]
IC50 [2]: 20500 nM

CC(C)(CO)[C@@H](O)C(=O)NCCC(=O)C(=O)NCCCN1CCOCC1=O [Example 40, (R)-2,4-Dihydroxy-3,3-dimethyl-N-{3-oxo-3-[3-(3-oxo-morpholin-4-yl)-propylcarbamoyl}-propyl)butyramide]
IC50 [2]: 400 nM

CC(C)(CO)[C@@H](O)C(=O)NCCC(=O)C(=O)NCC1CCN(S(=O)(=O)c2ccc(-c3ccccc3)cc2)CC1 [Example 38, (R)—N-(3-{[1-(Biphenyl-4-sulfonyl)-piperidin-4-ylmethyl]-carbamoyl}-3-oxo-propyl)-2,4-dihydroxy-3,3-dimethyl-butyramide]
IC50 [2]: < 10 nM

CC(C)(CO)[C@@H](O)C(=O)NCCC(=O)C(=O)NCC1CCN(S(=O)(=O)Cc2cccc(F)c2)CC1 [Example 52, (R)—N-(3-{[1-(3-Fluoro-phenylmethanesulfonyl)-piperidin-4-ylmethyl]-carbamoyl}-3-oxo-propyl)-2,4-dihydroxy-3,3-dimethyl-butyramide]
IC50 [2]: 50 nM
